We go through 15 compounds from patent US12060349B2, “Glucosylceramide synthase inhibitors” (Genzyme Corporation, priority 2012, dated 2024).

A word on the IC50: it is the concentration that inhibits the measured activity by half.

One assay concerns C32 human melanoma cells. Briefly: cell viability in the C32 cell-based assay (Viability, C32 IC50). The conditions noted are these: Homo sapiens, C32, C32 cells; concentration causing 50% cell death; values greater than 10 represent a lack of cell death; read-out: Viability, C32 IC50. The method in brief:
(§1)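 Viability readouts were run alongside the GM3 cell-surface assay in the same B16 and C32 cultures. A figure above 10 indicates no cell death.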

In assay [1] the test system is GM3 expression on the cell surface, B16 mouse melanoma cells. Briefly: cell based phenotypic assay, cell surface GM3 by antibody mediated immunofluorescence, B16 (GM3 B16 IC50). The conditions noted are these: Mus musculus, B16 mouse melanoma cells; 50% inhibition of GM3 expression on the cell surface; read-out: GM3 B16 IC50. The method in brief:
(§2)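 Both lines undergo the phenotypic GM3 assay, and viability is recorded from that same cell-based run.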

For another assay, the system named is B16 mouse melanoma cells. The assay can be described thus: cell viability in the B16 cell-based assay (Viability, B16 IC50). The conditions noted are these: Mus musculus, B16, B16 cells; concentration causing 50% cell death; values greater than 10 represent a lack of cell death; read-out: Viability, B16 IC50. The essentials: as §1
Assay [2] relates to GM3 expression on the cell surface, C32 human melanoma cells. The assay can be described thus: cell based phenotypic assay, cell surface GM3 by antibody mediated immunofluorescence, C32 (GM3 C32 IC50). As to conditions: Homo sapiens, C32 human melanoma cells; 50% inhibition of GM3 expression on the cell surface; read-out: GM3 C32 IC50. The method in brief: as §2
The target in assay [3] is T1, glucosylceramide synthase (Homo sapiens, UniProt Q16739).
T1 construct: Microsomes were isolated from A375 human melanoma cells; endogenous in cells; host or cells: A375 human melanoma cells (microsomal fraction, 100,000 g pellet)
T1 sequence (Q16739 1-394): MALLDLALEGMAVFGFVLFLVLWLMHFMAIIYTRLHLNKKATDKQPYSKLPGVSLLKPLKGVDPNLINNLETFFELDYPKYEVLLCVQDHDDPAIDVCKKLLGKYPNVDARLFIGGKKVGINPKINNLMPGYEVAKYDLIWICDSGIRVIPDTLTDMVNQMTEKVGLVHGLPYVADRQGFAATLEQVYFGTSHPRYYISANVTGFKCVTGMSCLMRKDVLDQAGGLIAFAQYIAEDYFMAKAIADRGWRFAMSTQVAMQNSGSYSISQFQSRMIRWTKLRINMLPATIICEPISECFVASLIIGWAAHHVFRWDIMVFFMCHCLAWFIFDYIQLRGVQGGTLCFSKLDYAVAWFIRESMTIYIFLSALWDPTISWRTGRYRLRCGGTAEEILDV
Briefly: microsomal assay measuring conversion of ceramide to glucosylceramide by HPLC (GCS IC50). As to conditions: concentration causing 50% inhibition of glucosylceramide synthase activity. It counts as biochemical. The method in brief:
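IC50 is the compound concentration halving glucosylceramide synthase activity. Activity was measured in microsomes, with HPLC quantifying glucosylceramide formed from ceramide.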

`CC1(NC(=O)C2CCN(c3nccc(-c4ccc(OCCF)cc4)n3)CC2)CCN2CCC1CC2` (stereo not drawn) [Example 71, 1-(4-(4-(2-Fluoroethoxy)phenyl)pyrimidin-2-yl)-N-(4-methyl-1-azabicyclo[3.2.2]nonan-4-yl)piperidine-4-carboxamide]: the IC50 in the assay with C32 human melanoma cells is 10 nM; in assay [1] it was 4.29 nM; in the assay on B16 mouse melanoma cells it was 2150 nM; in assay [2], 0.126 nM; in assay [3] it was 2.48 nM.

Turning to `COCCCOc1ccc(-c2ccnc(N3CCC(C(=O)NC4CN5CCC4CC5)CC3)n2)cc1` (stereo not drawn) [Example 72, 1-(4-(4-(3-Methoxypropoxy)phenyl)pyrimidin-2-yl)-N-(quinuclidin-3-yl)piperidine-4-carboxamide], the IC50 was determined as 464 nM in the assay on C32 human melanoma cells; 79.5 nM in assay [1]; 8630 nM in the assay with B16 mouse melanoma cells; 0.26 nM in assay [2]; 1.16 nM in assay [3].

With `COCc1ccc(-c2ccnc(N3CCC(C(=O)NC4(C)CN5CCC4CC5)CC3)n2)cc1` (stereo not drawn) [Example 73, 1-(4-(4-(Methoxymethyl)phenyl)pyrimidin-2-yl)-N-(3-methylquinuclidin-3-yl)piperidine-4-carboxamide], the IC50 in the assay with C32 human melanoma cells came out at 631 nM; in assay [1] it was 47.4 nM; in the assay with B16 mouse melanoma cells, 4640 nM; in assay [2], 0.25 nM; in assay [3] it was 3.46 nM.

For the compound `COCCOCc1ccc(-c2ccnc(N3CCC(C(=O)NC4(C)CCN5CCC4CC5)CC3)n2)cc1` (stereo not drawn) [Example 74, 1-(4-(4-((2-Methoxyethoxy)methyl)phenyl)pyrimidin-2-yl)-N-(4-methyl-1-azabicyclo[3.2.2]nonan-4-yl)piperidine-4-carboxamide], the IC50 is 215 nM with C32 human melanoma cells; 32.5 nM in assay [1]; no less than 10000 nM in the assay on B16 mouse melanoma cells; 0.71 nM in assay [2]; 12.8 nM in assay [3].

Regarding `COCc1ccc(-c2ccnc(N3CCC(F)(C(=O)NC4(C)CCN5CCC4CC5)CC3)n2)cc1` (stereo not drawn) [Example 75, 4-Fluoro-1-(4-(4-(methoxymethyl)phenyl)pyrimidin-2-yl)-N-(4-methyl-1-azabicyclo[3.2.2]nonan-4-yl)piperidine-4-carboxamide], the IC50 in the assay with C32 human melanoma cells was 316 nM; in assay [1], 48.9 nM; with B16 mouse melanoma cells it was 5270 nM; in assay [2], 0.383 nM; in assay [3] it was 2.83 nM.

With `COCCCOc1ccc(-c2ccnc(N3CCC(F)(C(=O)NC4(C)CN5CCC4CC5)CC3)n2)cc1` (stereo not drawn) [Example 76, 4-Fluoro-1-(4-(4-(3-methoxypropoxy)phenyl)pyrimidin-2-yl)-N-(3-methylquinuclidin-3-yl)piperidine-4-carboxamide], the IC50 turned out to be 1000 nM in the assay with C32 human melanoma cells; 58.7 nM in assay [1]; 3870 nM in the assay on B16 mouse melanoma cells; 0.141 nM in assay [2]; 1.34 nM in assay [3].

Regarding `COCCOCc1ccc(-c2nc(N3CCC(F)(C(=O)NC4(C)CCN5CCC4CC5)CC3)ncc2F)cc1` (stereo not drawn) [Example 77, 4-Fluoro-1-(5-fluoro-4-(4-((2-methoxyethoxy)methyl)phenyl)pyrimidin-2-yl)-N-(4-methyl-1-azabicyclo[3.2.2]nonan-4-yl)piperidine-4-carboxamide], the IC50 with C32 human melanoma cells worked out at 316 nM; in assay [1], 86.3 nM; in the assay on B16 mouse melanoma cells it was 3760 nM; in assay [2], 0.316 nM; in assay [3], 1.67 nM.

Consider `COCc1ccc(-c2ccnc(N3CCC(F)(C(=O)NC4(C)CN5CCC4CC5)CC3)n2)cc1` (stereo not drawn) [Example 80, 4-Fluoro-1-(4-(4-(methoxymethyl)phenyl)pyrimidin-2-yl)-N-(3-methylquinuclidin-3-yl)piperidine-4-carboxamide], for which the IC50 in the assay on C32 human melanoma cells is 215 nM; in assay [1], 68.5 nM; in the assay on B16 mouse melanoma cells it was no less than 10000 nM; in assay [2], 0.525 nM; in assay [3] it was 4 nM.

With `COCc1ccc(-c2ccnc(N3CCC(F)(C(=O)N[C@]4(C)CN5CCC4CC5)CC3)n2)cc1` [Example 81, (S)-4-Fluoro-1-(4-(4-(methoxymethyl)phenyl)pyrimidin-2-yl)-N-(3-methylquinuclidin-3-yl)piperidine-4-carboxamide], the IC50 in the assay on C32 human melanoma cells was 316 nM; in assay [1] it was 48.1 nM; in the assay with B16 mouse melanoma cells, no less than 10000 nM; in assay [2] it was 0.222 nM; in assay [3] it was 2.3 nM.

Turning to `COCCCOc1ccc(-c2ccnc(N3CCC(F)(C(=O)NC4(C)CCN5CCC4CC5)CC3)n2)cc1` (stereo not drawn) [Example 82, 4-Fluoro-1-(4-(4-(3-methoxypropoxy)phenyl)pyrimidin-2-yl)-N-(4-methyl-1-azabicyclo[3.2.2]nonan-4-yl)piperidine-4-carboxamide], the IC50 with C32 human melanoma cells was 1000 nM; in assay [1], 42.1 nM; with B16 mouse melanoma cells, 2790 nM; in assay [2], 0.128 nM; in assay [3], 1.26 nM.

For the compound `COCCOCc1ccc(-c2ccnc(N3CCC(F)(C(=O)NC4(C)CN5CCC4CC5)CC3)n2)cc1` (stereo not drawn) [Example 83, 4-Fluoro-1-(4-(4-((2-methoxyethoxy)methyl)phenyl)pyrimidin-2-yl)-N-(3-methylquinuclidin-3-yl)piperidine-4-carboxamide], the IC50 in the assay with C32 human melanoma cells was 1000 nM; in assay [1], 119 nM; in the assay on B16 mouse melanoma cells, no less than 10000 nM; in assay [2], 1.13 nM; in assay [3], 13.4 nM.

Take `COCCOCc1ccc(-c2ccnc(N3CCC(F)(C(=O)N[C@]4(C)CN5CCC4CC5)CC3)n2)cc1` [Example 84, (S)-4-Fluoro-1-(4-(4-((2-methoxyethoxy)methyl)phenyl)pyrimidin-2-yl)-N-(3-methylquinuclidin-3-yl)piperidine-4-carboxamide]: the IC50 in the assay on C32 human melanoma cells was 1000 nM; in assay [1], 90.3 nM; in the assay on B16 mouse melanoma cells it was no less than 10000 nM; in assay [2], 0.621 nM; in assay [3] it was 5.35 nM.

As to `COCCOc1ccc(-c2ccnc(N3CCC(F)(C(=O)NC4(C)CN5CCC4CC5)CC3)n2)cc1` (stereo not drawn) [Example 85, 4-Fluoro-1-(4-(4-(2-methoxyethoxy)phenyl)pyrimidin-2-yl)-N-(3-methylquinuclidin-3-yl)piperidine-4-carboxamide], the IC50 is 316 nM in the assay on C32 human melanoma cells; 79.9 nM in assay [1]; no less than 10000 nM in the assay with B16 mouse melanoma cells; 0.389 nM in assay [2]; 10.5 nM in assay [3].

Take `COCCOc1ccc(-c2ccnc(N3CCC(F)(C(=O)N[C@]4(C)CN5CCC4CC5)CC3)n2)cc1` [Example 86, (S)-4-Fluoro-1-(4-(4-(2-methoxyethoxy)phenyl)pyrimidin-2-yl)-N-(3-methylquinuclidin-3-yl)piperidine-4-carboxamide]: the half-inhibitory concentration (IC50) in the assay on C32 human melanoma cells was 1000 nM; in assay [1], 48 nM; in the assay with B16 mouse melanoma cells it was no less than 10000 nM; in assay [2], 0.241 nM; in assay [3] it was 3.46 nM.

As for `O=C(NC1CN2CCC1CC2)C1(F)CCN(c2nccc(-c3ccc(OCCF)cc3)n2)CC1` (stereo not drawn) [Example 87, 4-Fluoro-1-(4-(4-(2-fluoroethoxy)phenyl)pyrimidin-2-yl)-N-(quinuclidin-3-yl)piperidine-4-carboxamide], the IC50 in the assay on C32 human melanoma cells stood at 215 nM; in assay [1] it was 64.3 nM; in the assay with B16 mouse melanoma cells it was 8910 nM; in assay [2], 0.177 nM; in assay [3] it was 1.91 nM.
